Reference: patent US12044683B2, “Methods and compositions concerning intestinal permeability” (THE REGENTS OF THE UNIVERSITY OF CALIFORNIA, priority 2018, dated 2024)
Where “and” joins values, the source holds several entries; their conditions need not be identical. Equal values may be shown once. Marks after values point to notes of the source that are not given here.

Key:
[1] = rats; Brown 1980; cited from earlier work
[2] = Blue #1 measured by LC/MS in blood/plasma after enteral administration (intestinal permeability test); format: in vivo, human; set-up: Blue #1 in blood sample, 2 H / Blue #1 in blood sample, 8 H: unit not given here; conditions: for Blue #1 in blood sample, 2 H: 2 H after dose; for Blue #1 in blood sample, 8 H: 8 H after dose
Experimental: High dose: 0.5 mg/kg—e.g, 35 mg in a 70 kg adult, administered as 35 ml of diluted food coloring solution (16 mg/mL diluted 1:16) was used. Five blood samples were drawn per subject (5 ml/draw): 0 hour-prior to dose, 1 hour, 2 hours, 4 hours, 8 hours. Four subjects enrolled. […]
Test subjects with clinically determined sepsis were given enteral Blue #1 at a designated time prior to scheduled blood draw. […] Sepsis was defined by the Surviving Sepsis Campaign [Crit Care Med. 2013; 41(2):580] (presence, probable or documented, of infection together with systemic manifestations such as fever, tachycardia, leukocytosis, hypotension, organ dysfunction, or decreased tissue perfusion). […] The medium dose was: 0.05 mg/kg—e.g. 3.5 mg in a 70 kg adult, administered as 35 mL of diluted food coloring solution (0.1 mg/mL), The low dose was: 0.005 mg/kg—e.g. 0.35 mg in a 70 kg, administered as 35 ml of diluted food coloring solution (0.01 mg/ml). Five blood draws per subject (5 ml/draw): 0 hour—prior to dose, 1 hour, 2 hours, 4 hours, and 8 hours, through clinically indicated, previously placed IV catheters. 14 subjects were used in this study.
Plasma concentration of Blue-1 is shown in relation to time in two patients (10-26-16) and (11-14-16) diagnosed with sepsis. Plasma preparation was done as shown in Example 5C below. Bzi-Arg_pNA was used as a STD. The data obtained is shown in Tables 2 and 3 below and in FIG. 3. The standard graph is FIG. 4.
Subjects were asked to drink a blue food coloring solution, (GATORADE for example) at 0.5 mg/kg (35 ml for a 70 kg human subject). Then a blood sample was drawn (e.g. 5 ml) at five different time periods for each subject: immediately before the drink (time zero), 1 hour, 2 hour, 4 hour and 8 hours after the drink. Subjects in Group 2 also had some of their abdominal fluid from the paracentesis saved to analyze for the presence of the dye, Plasma was prepared according to the method in the following example.
1) one volume of plasma was mixed with 3 volumes of (1:3→IPA:CAN+0.1% TFA);
2) after spin-down, 1800 μl of supernatant was evaporated (for example, by a Speed-Vac)
4) 10 μl of the re-suspended residue was injected onto a mass spectrophotometer for each analysis which corresponds to 25 μl of “pure plasma”. Quantitative analysis of the peak corresponding to the mass of Blue #1 was performed to see how much of the dye had been absorbed. Bzl-Arg_pNA is an example of a standard that worked with this assay.

[3] = test system: fruit flies; conditions: fruit fly bodies viewed under a microscope after being given the dye; cited from earlier work
[4] = Solubility in resuspension solvents (NMP, water); format: physicochemical; conditions: NMP and water (50% NMP in water used for resuspension)
[5] = studies supporting FDA approval for foods, drugs and cosmetics; cited from earlier work
[6] = Non-septic 1, ICU, no vasopressor, MELD 40, Eating
[7] = Non-septic 2, ICU, no vasopressor, MELD 33, Eating
[8] = Non-septic 3, ICU, no vasopressor, MELD 17, Eating
[9] = Non-septic 4, ICU/Pressor, NE 0.4, MELD 36, Eating
[10] = Normal 1, Normal, no vasopressor, MELD 6, NPO
[11] = Normal 2, Normal, no vasopressor, MELD 6, NPO
[12] = Normal 3, Normal, no vasopressor, MELD 6, NPO
[13] = Normal 4, Normal, no vasopressor, MELD 6, NPO
[14] = Septic 1, ICU/Pressor, NE 0.12, MELD 34, NPO × meds
[15] = Septic 3 (first line so labelled, r15), ICU/Pressor, NE 0.12, MELD 39, NPO × meds
[16] = Septic 3 (second line so labelled, r17), ICU/Pressor, Vaso 4, NE 0.09, PhE 25, MELD 35, NPO × meds
[17] = Septic 4, ICU/Pressor, NE 0.25, MELD 40, NPO × meds
[18] = Septic 5, ICU/Pressor, NE 0.02, MELD 23, Eating
[19] = Septic 6, ICU/Pressor, Vaso 2, MELD 43, NPO × meds
[20] = sepsis patient of Table 2, 1 hr after ingestion
[21] = sepsis patient of Table 2, 2 hr after ingestion
[22] = sepsis patient of Table 2, 4 hr after ingestion
[23] = sepsis patient of Table 2, 8 hr after ingestion
[24] = sepsis patient of Table 3, 1 hr after ingestion
[25] = sepsis patient of Table 3, 2 hr after ingestion
[26] = sepsis patient of Table 3, 4 hr after ingestion
[27] = sepsis patient of Table 3, 8 hr after ingestion

SMILES: CCN(Cc1cccc(S(=O)(=O)[O-])c1)c1ccc(C(=C2C=CC(=[N+](CC)Cc3cccc(S(=O)(=O)[O-])c3)C=C2)c2ccccc2S(=O)(=O)[O-])cc1.[Na+].[Na+] [Blue #1, disodium;2-[[4-[ethyl-[(3-sulfonatophenyl)methyl]amino]phenyl]-[4-[ethyl-[(3-sulfonatophenyl)methyl]azaniumlidene]cyclohexa-2,5-dien-1-ylidene]methyl]benzenesulfonate]
- Share of the dye absorbed into the blood from the intestine [1]: more than 0.02%
- Blue #1 in blood sample, 2 H [2, 6]: 0.5
- Blue #1 in blood sample, 8 H [2, 6]: 0.15
- Blue #1 in blood sample, 2 H [2, 7]: <0.05
- Blue #1 in blood sample, 8 H [2, 7]: <0.05
- Blue #1 in blood sample, 2 H [2, 8]: <0.05
- Blue #1 in blood sample, 8 H [2, 8]: <0.05
- Blue #1 in blood sample, 2 H [2, 9]: <0.05
- Blue #1 in blood sample, 8 H [2, 9]: <0.05
- Blue #1 in blood sample, 2 H [2, 10]: <0.05
- Blue #1 in blood sample, 8 H [2, 10]: <0.05
- Blue #1 in blood sample, 2 H [2, 11]: <0.05
- Blue #1 in blood sample, 8 H [2, 11]: <0.05
- Blue #1 in blood sample, 2 H [2, 12]: <0.05
- Blue #1 in blood sample, 8 H [2, 12]: <0.05
- Blue #1 in blood sample, 2 H [2, 13]: <0.05
- Blue #1 in blood sample, 8 H [2, 13]: <0.05
- Blue #1 in blood sample, 2 H [2, 14]: 0.5
- Blue #1 in blood sample, 8 H [2, 14]: 0.3
- Blue #1 in blood sample, 2 H [2, 15]: 0.7
- Blue #1 in blood sample, 8 H [2, 15]: 0.5
- Blue #1 in blood sample, 2 H [2, 16]: <0.05
- Blue #1 in blood sample, 8 H [2, 16]: <0.05
- Blue #1 in blood sample, 2 H [2, 17]: 2.5
- Blue #1 in blood sample, 8 H [2, 17]: 4.6**
- Blue #1 in blood sample, 2 H [2, 18]: 0.4
- Blue #1 in blood sample, 8 H [2, 18]: 0.05
- Blue #1 in blood sample, 2 H [2, 19]: 1
- Blue #1 in blood sample, 8 H [2, 19]: 1.5
- Detectability of Blue #1 by LC/MS (FIG. 2, upper graph) ([2]; non-septic patient): not detectable
- Absorption into blood in normal subjects ([2]; normal subjects (four enrolled), high dose 0.5 mg/kg oral, up to 8 hours later): wasn't any detectable absorption
- Plasma concentration of Blue-1, Average [2, 20]: 1.41 nM (nM)
- Plasma concentration of Blue-1, replicates A, B, C [2, 20]: 1.81 fMoles/μl (nM) and 1.13 fMoles/μl (nM) and 1.29 fMoles/μl (nM)
- Plasma concentration of Blue-1, Average [2, 21]: 2.59 nM (nM)
- Plasma concentration of Blue-1, replicates A, B, C [2, 21]: 2.17 fMoles/μl (nM) and 2.89 fMoles/μl (nM) and 2.72 fMoles/μl (nM)
- Plasma concentration of Blue-1, Average [2, 22]: 2.03 nM (nM)
- Plasma concentration of Blue-1, replicates A, B, C [2, 22]: 2.30 fMoles/μl (nM) and 1.75 fMoles/μl (nM) and 2.05 fMoles/μl (nM)
- Plasma concentration of Blue-1, Average [2, 23]: 2.18 nM (nM)
- Plasma concentration of Blue-1, replicates A, B, C [2, 23]: 2.44 fMoles/μl (nM) and 2.04 fMoles/μl (nM) and 2.05 fMoles/μl (nM)
- Plasma concentration of Blue-1, Average [2, 24]: 1.17 nM (nM)
- Plasma concentration of Blue-1, replicates A, B, C [2, 24]: 1.09 fMoles/μl (nM) (2×) and 1.33 fMoles/μl (nM)
- Plasma concentration of Blue-1, Average [2, 25]: 2.29 nM (nM)
- Plasma concentration of Blue-1, replicates A, B, C [2, 25]: 2.40 fMoles/μl (nM) and 2.28 fMoles/μl (nM) and 2.18 fMoles/μl (nM)
- Plasma concentration of Blue-1, Average [2, 26]: 2.67 nM (nM)
- Plasma concentration of Blue-1, replicates A, B, C [2, 26]: 2.53 fMoles/μl (nM) and 2.29 fMoles/μl (nM) and 3.19 fMoles/μl (nM)
- Plasma concentration of Blue-1, Average [2, 27]: 3.37 nM (nM)
- Plasma concentration of Blue-1, replicates A, B, C [2, 27]: 3.50 fMoles/μl (nM) and 3.04 fMoles/μl (nM) and 358 fMoles/μl (nM)
- Detectability of Blue #1 by LC/MS (FIG. 2, lower graph) ([2]; septic patient): detectable
- Absorption by fruit flies [3]: not to be absorbed
- Solubility [4]: soluble in both
- Acceptable daily intake [5]: 12 mg/kg body weight/day
